Data taken from patent US20230310661A1, “OPHTHALMIC DYE” (Vitreq B.V., priority 2020, published 2023).
Read-outs that look alike come from different tables or passages of the source.

Experiments:
ARPE19 cells = experiment: Staining of dead cells and/or living cells: dye content in ARPE19 cells by spectrophotometry; format: cell-based, human; conditions: 15 minutes staining; for Adead (maximum absorbance for dead cells): ARPE19 cells fixed with 70% ethanol 5 minutes; for Aliving (maximum absorbance for living cells): living ARPE19 cells
ARPE-19 cells [1] = experiment: Toxicity: survival of cells after exposure to dyes; format: cell-based; conditions: for Survival of ARPE-19 cells: 0.1% in PBS for 15 minutes at 37° C.
Method: A preferred dye, being either a compound according to the invention or an additional dye as defined above, has a good staining ability for dead cells, a minimal cellular toxicity in the dark, and a minimal cellular toxicity in the strong illumination necessary for surgery.
According to a preferred definition, a low toxicity means that at least 60%, 65%, 70%, 75%, 80%, 85%, 90% or 95% cell viability is retained after incubation in PBS for 15 minutes at 37° C. and 5% CO2, as determined using the methodology of Example 6.

[2] = Staining ability on PVDF filter as ILM model; conditions: for Ability to stain the ILM (comparative statement): PVDF filter as model for the ILM; for Mean intensity of the grey values of stained filter: 30 s contact, scale 255 is white and 0 is black
Text: Correlation between staining of the filter and observed staining of the ILM in patients (data from (Rodrigues, Penha et al. 2010)) show a good correlation (see FIG. 1). A 96-well filter (MSBVN1210 MultiScreen BV Filter Plate, Merck-Millipore, Darmstadt, Germany) was used as ILM model. The filter material is hydrophilic polyvinylidene difluoride (PVDF). A Collagen Cell Carrier membrane (CCC) (Viscofan, Weinheim, Germany) was used as model for the ERM. Punches of the membrane (5 mm diameter) were fixed to the filter with a hypodermic needle and soaked in PBS for 30 minutes. The PBS was removed by vacuum filtration, and 50 μL of the dye solution was pipetted into the filter well. After 30 s, the dye was removed by vacuum filtration, and membrane and filter were washed three times with PBS. The membrane was removed and put into a 96-well plate for spectrum recording, using a Tecan Spark 20M (Tecan Group Ltd., Männedorf, Switzerland) plate reader. The filter staining of the compounds (6) and (8) according to the invention are shown in FIG. 2 in comparison to that of BBG. […] The intensity of the grey values was measured. For BBG the mean intensity was 201, for compound (6) it was 175, for compound (8) it was 197. On the scale used, 255 is white and 0 is black.

ARPE-19 cells [3] = experiment: Three-step staining (dye, calcein-AM, propidium iodide) with microphotographs; format: cell-based, human; conditions: 0.025% in PBS, room temperature, 15 minutes; 20% ethanol 5 minutes to induce death in some cells; FIG. 3
Method: An experiment was carried out with ARPE-19 cells and staining with compound (6).
A three-step staining procedure was used: first the dye was introduced, then calcein-acetoxymethyl ester (calcein-AM), then propidium iodide (PI). Calcein-AM (which is non-fluorescent) is able to penetrate cell membranes and is hydrolyzed by intracellular esterases to calcein, which is fluorescent and which cannot escape through the intact cell membrane. Cells fluorescent for calcein-AM are therefore intact and living cells. Dead cells (cells with a compromised cell membrane) might still hydrolyze calcein-AM, but they are not able to retain the calcein. Cells with compromised cell membranes can take up propidium iodide, a dye which intercalates into DNA and turns fluorescent upon binding.
Cells were grown in 48-well plates. Growth medium was removed and a solution of 20% ethanol was added for 5 minutes in order to induce cell death in some cells. The ethanol solutions were removed. Staining with compound (6) (0.025%) in PBS was carried out at room temperature for 15 minutes. The dye was washed off with PBS. The cells were then exposed to calcein-acetoxymethyl ester (calcein-AM) in PBS for 15 minutes at room temperature. […]

[4] = dye 0.1% w/v in PBS, <0.07 = does not stain
[5] = concentration of the dye 0.025%

| Compound | Adead (maximum absorbance for dead cells) (ARPE19 cells; dye 0.1% w/v in PBS) | Aliving (maximum absorbance for living cells) (ARPE19 cells; [4]) | also measured |
| --- | --- | --- | --- |
| CC1=CC(=[N+](C)Cc2cccc(S(=O)(=O)[O-])c2)C=CC1=C(c1ccc(Nc2ccc(OC(C)C)cc2)cc1)c1ccc(N(C)Cc2cccc(S(=O)(=O)O)c2)cc1C [(1)] | 0.3481 | 0.0283 | – |
| CC1=CC(=[N+](C)Cc2cccc(S(=O)(=O)[O-])c2)C=CC1=C(c1ccc(Nc2ccc(OCc3ccccc3)cc2)cc1)c1ccc(N(C)Cc2cccc(S(=O)(=O)O)c2)cc1C [(2)] | 0.2454 | 0.0253 | – |
| CCN(Cc1cccc(S(=O)(=O)O)c1)c1ccc(C(=C2C=CC(=[N+](CC)Cc3cccc(S(=O)(=O)[O-])c3)C=C2C)c2ccc(Nc3ccc(OC(C)C)cc3)cc2)c(C)c1 [(3)] | 0.6387 | 0.0440 | – |
| CCCOc1ccc(Nc2ccc(C(=C3C=CC(=[N+](CC)Cc4cccc(S(=O)(=O)[O-])c4)C=C3C)c3ccc(N(CC)Cc4cccc(S(=O)(=O)O)c4)cc3C)cc2)cc1 [(4)] | 0.8084 | 0.0485 | – |
| CCN(Cc1cccc(S(=O)(=O)O)c1)c1ccc(C(=C2C=CC(=[N+](CC)Cc3cccc(S(=O)(=O)[O-])c3)C=C2C)c2ccc(Nc3ccc(OCc4ccccc4)cc3)cc2)c(C)c1 [(5)] | 0.6734 | 0.0327 | Survival of ARPE-19 cells (ARPE-19 cells [1]): 81%; Survival (ARPE-19 cells [1]; dye concentration 0.025%): 81% |
| CCN(Cc1cccc(S(=O)(=O)O)c1)c1ccc(C(=C2C=CC(=[N+](CC)Cc3cccc(S(=O)(=O)[O-])c3)C=C2C)c2ccc(Nc3ccc(Oc4ccccc4)cc3)cc2)c(C)c1 [(7)] | – | – | Adead (maximum absorbance for dead cells) (ARPE19 cells; [5]): 0.1976; Aliving (maximum absorbance for living cells) (ARPE19 cells; [5]): 0.0216; Survival of ARPE-19 cells (ARPE-19 cells [1]): 81%; Survival (ARPE-19 cells [1]; dye concentration 0.025%): 81% |
| CCN(Cc1cccc(S(=O)(=O)O)c1)c1ccc(C(=C2C=CC(=[N+](CC)Cc3cccc(S(=O)(=O)[O-])c3)C=C2C)c2ccc(Nc3ccc(Nc4ccccc4)cc3)cc2)c(C)c1 [(8)] | 0.8411 | 0.0629 | Ability to stain the ILM (comparative statement) [2]: increased ability to stain the ILM compared to compound (6); Mean intensity of the grey values of stained filter ([2]; dye 0.005%): 197; Filter staining in comparison to BBG and compound (6) ([2]; dye at 0.005%, comparators at 0.025%, FIG. 2): even stronger staining; Survival of ARPE-19 cells (ARPE-19 cells [1]): 79%; Survival (ARPE-19 cells [1]; dye concentration 0.025%): 79% |
| CCCCN(c1ccc(OCC)cc1)c1ccc(C(=C2C=CC(=[N+](CC)Cc3cccc(S(=O)(=O)[O-])c3)C=C2C)c2ccc(N(CC)Cc3cccc(S(=O)(=O)O)c3)cc2C)cc1 [BBBG] | 0.7941 | 0.1491 | Survival (ARPE-19 cells [1]; dye concentration 0.005%): 67% |
| CCOc1ccc(Nc2ccc(/C(=C3C=C/C(=[N+](/CC)Cc4cccc(S(=O)(=O)[O-])c4)C=C/3C)c3ccc(N(CC)Cc4cccc(S(=O)(=O)[O-])c4)cc3C)cc2)cc1.[Na+] [BBG, Brilliant Blue G] | 0.5651 | 0.0328 | Mean intensity of the grey values of stained filter ([2]; dye 0.025%): 201; Survival (ARPE-19 cells [1]): 99% |
| CCN(CC)c1ccc(C(=C2C=CC(=[N+](CC)CC)C=C2)c2ccccc2)cc1 [Brilliant Green] | 0.0568 | 0.1088 | – |
| O=S1(=O)OC(c2cc(Br)c(O)c(Br)c2)(c2cc(Br)c(O)c(Br)c2)c2ccccc21 [Bromophenol Blue] | 0.0357 | 0.0059 | – |
| CCN(Cc1cccc(S(=O)(=O)O)c1)c1ccc(C(=C2C=CC(=[N+](CC)Cc3cccc(S(=O)(=O)[O-])c3)C=C2C)c2ccc(Nc3ccc(OC)cc3)cc2)c(C)c1 [Compound (6)] | 0.8755 | 0.0603 | Adead (maximum absorbance for dead cells) (ARPE19 cells; [5]): 0.3630; Aliving (maximum absorbance for living cells) (ARPE19 cells; [5]): 0.0635; Staining of living cells (microscopy) (ARPE-19 cells [3]): does not stain living cells; Ability to stain the ILM (comparative statement) [2]: increased ability to stain the ILM compared to BBG; Mean intensity of the grey values of stained filter ([2]; dye 0.025%): 175; Filter staining in comparison to BBG ([2]; equal concentrations of 0.025%, FIG. 2): Much stronger staining; Survival of ARPE-19 cells (ARPE-19 cells [1]): 103%; Survival (ARPE-19 cells [1]; dye concentration 0.025%): 103% |
| CN(C)c1ccc(C(=C2C=CC(=[N+](C)C)C=C2)c2ccc(N(C)C)cc2)cc1 [Crystal Violet] | 0.4365 | – | – |
| CCOc1ccc(N(CC)c2ccc(C(=C3C=CC(=[N+](CC)Cc4cccc(S(=O)(=O)[O-])c4)C=C3C)c3ccc(N(CC)Cc4cccc(S(=O)(=O)O)c4)cc3C)cc2)cc1 [EBBG] | 0.9066 | 0.0724 | Survival (ARPE-19 cells [1]; dye concentration 0.025%): 93% |
| O=C1OC2(c3ccccc31)c1cc(Br)c(O)c(Br)c1Oc1c2cc(Br)c(O)c1Br [Eosin] | 0.2358 | 0.0362 | – |
| CC1(C)C(/C=C/C=C/C=C/C=C2\N(CCCCS(=O)(=O)O)c3ccc4ccccc4c3C2(C)C)=[N+](CCCCS(=O)(=O)[O-])c2ccc3ccccc3c21 [ICG, indocyanine green] | 1.1751 | 0.0703 | – |
| CCN(Cc1cccc(S(=O)(=O)O)c1)c1ccc(C(=C2C=CC(=[N+](CC)Cc3cccc(S(=O)(=O)O)c3)C=C2)c2ccc(S(=O)(=O)O)cc2)cc1.[Na+].[Na+] [Light Green SF] | 0.0080 | 0.0065 | – |
| CCOc1ccc(N(C)c2ccc(C(=C3C=CC(=[N+](CC)Cc4cccc(S(=O)(=O)[O-])c4)C=C3C)c3ccc(N(CC)Cc4cccc(S(=O)(=O)O)c4)cc3C)cc2)cc1 [MBBG] | 0.6876 | 0.0355 | – |
| CN(C)c1ccc(C(=C2C=CC(=[N+](C)C)C=C2)c2ccccc2)cc1 [Malachite Green] | 0.0068 | 0.0058 | – |
| CN(C)c1ccc(C(=C2C=CC(=[N+](C)C)C=C2)c2ccc([N+](C)(C)C)cc2)cc1.[Cl-].[Cl-] [Methyl Green] | 0.0750 | 0.0489 | – |
| CCCN(c1ccc(OCC)cc1)c1ccc(C(=C2C=CC(=[N+](CC)Cc3cccc(S(=O)(=O)[O-])c3)C=C2C)c2ccc(N(CC)Cc3cccc(S(=O)(=O)O)c3)cc2C)cc1 [PBBG] | 0.7369 | 0.1331 | Survival (ARPE-19 cells [1]; dye concentration 0.005%): 66% |
| Cc1cc(-c2ccc(/N=N/c3c(S(=O)(=O)O)cc4cc(S(=O)(=O)O)cc(N)c4c3O)c(C)c2)ccc1/N=N/c1c(S(=O)(=O)O)cc2cc(S(=O)(=O)O)cc(N)c2c1O [Trypan Blue] | 0.0847 | 0.0135 | – |
| Acid Violet | 0.2077 | 0.0184 | – |
| Aniline Blue | 0.0057 | 0.0080 | – |
| Methyl Violet | 0.8900 | – | – |
| Patent Blue 1 | 0.0113 | 0.0155 | – |
